Results on eleven molecules are retold here after US12435315B2, “Generating dorsal foregut, and anterior domain, endoderm cells” (The Cleveland Clinic Foundation, priority 2019, dated 2025).

What all share (format): cell-based, human
The test system of test [1] is pluripotent stem cells. Nature of the test: DoE/ISPA of biologically active retinoids for HNF1β induction (DFE induction). To be noted: retinoid DoE; 13-cis and all trans stated to contribute negatively. An excerpt:
(§1) All DoE experimental designs were computer generated using D-optimal interaction designs in MODDE software (Sartorius Stedim Data Analytical Solutions, SSDAS). Perturbation matrixes were generated (96 independent experimental runs) on a Freedom Evol50 liquid handling robot (TECAN, CH). Each DoE differentiation experiment used a 3-day application of perturbation matrixes with daily media replacements. All cell culture, including manual preparatory expansion and seeding as well as any robotic manipulations were contained in a modular X-Vivo system (Biospherix, NY, USA) providing Process Analytical Technology (PAT) of the cell culture conditions (affording % N2, % O2, % CO2, and temperature control and monitoring at any point in the experimental process). End-point data collection was performed using an Open Array RT-QPCR method (QuantStudio, Life Technologies, 53 genes/sample/card). QuantStudio gene expression data were normalized within Expression Suite™ (Life Tech), standardized, and exported to MODDE. Mathematical modeling of the differentiation space was performed in MODDE using PLS maximizing the explained variance and subsequently gene-specific models were tuned by Q2 maximization. Fitted model optimized conditions for response maximization or minimization were extracted using the software predictive tools ‘optimizer’ and ‘dynamic profile’ analysis. Virtual experiments were performed in the known space covered by the experimental design, addressing pathway relative contributions to the desired parameters.
Samples were loaded onto a custom design Quant Studio Card using an OpenArray AccuFill System (Life Technologies 4471021) and ran on a QuantStudio 12k Flex Real-Time PCR System (Life Technologies 4471090). The QuantStudio Open Array analysis provided expression information of 53 chosen genes per open array configuration. […] Initial designs included genes responding to all major sub-lineage fates downstream of pluripotency, while the later design focused more on endodermal lineages with an emphasis on pancreatic fates. […]

For test [2], the system named is DFE-derived endocrine cultures. As to the kind of experiment: Glucose stimulated insulin release assay (GSIS), C-peptide ELISA. The conditions noted are these: 30 mM KCl, 30 minute incubation, versus 2 mM glucose basal. As for the experimental part: GSIS assays were performed by incubating cells in Krebs-Ringer buffer supplemented with 2 mM glucose for 30 minutes for determination of basal C-peptide levels. This was followed by changing reaction buffer to a Krebs Ringer buffer either supplemented with 20 mM glucose or 30 mM KCl for an additional 30 minute incubation. Buffer samples were collected and C-Peptide levels were quantified using ELISA (Mercodia 10-1141-01) according to manufacturer's protocol. Microfludic assays were performed as previously described (Adewola et al., 2010, Wang et al., 2012).
(An ELISA detects its analyte on a solid surface through an enzyme-linked reagent.)

In test [3] the test system is pluripotent cultures. As to the kind of experiment: DoE/ISPA modeling of endodermal gene induction from pluripotency (3-day perturbation matrix, OpenArray RT-QPCR). To be noted: ISPA prediction; for factor contribution (FC) for FOXA2 expression / factor contribution (FC) for HNF1β expression / factor contribution (FC) for MNX1 expression: pluripotent cultures. The protocol:
Pluripotent cultures were adapted to Essential 8 media (Gibco A15169-01) and grown on vitronectin (Gibco A14700) coated plates (Corning Inc. 3598). Differentiation experiments were seeded at 75,000 cells per cm^2 and maintained in E8 medium for 48 hours until cultures were approximately 90% confluent before initiating differentiation. All growth factors and small molecules were reconstituted according to supplier's recommendations and aliquots were stored at −80° C. for up to a year. Growth medium was changed daily and with the exception of the DE protocol the basal medium used in all differentiation experiments was CDM2 (Loh et al., 2014). The APS^Opt was composed of 250 nM LDN3189 (Sellekchem S2618), 50 ng/ml Activin A (Peprotech 120-14), 20 ng/ml bFGF (Gibco 13256029), 100 nM Sant1 (Sellekchem S7092). The HNF1β^Opt was supplemented with 250 nM LDN3189, 500 nM A8301 (Biogems 4463325), 12.6 ng/ml Wnt3a (R&D 5036WN/CF), 25 ng/ml bFGF, 250 nM PD0325 (Selleckchme S1036), 40 ng/ml SHH (Peprotech 100-45) and 2 uM retinoic acid (Sigma Aldrich R2625). DE was generated using conditions previously described (Rezania et al., 2014, D'Amour et al., 2005). The PDX1^Opt was composed of 500 nM A8301, 250 nM LDN3189, 100 nM Sant1, 250 nM PD0325, 2 uM retinoic acid and 1% B27 supplement (Gibco 12587) and with the exception of where it is stated differently in the text was used for 3 sequential days on differentiating cells. Endocrine push medium was supplemented with 100 nM gamma-secretase inhibitor XX (EMD Millipore 565789) and 500 nM A8301. Stomach organoids were generated using a modified protocol (McCracken et al., 2014). Briefly HNF1β^Opt cultures were incubated for three days with a stage 2 medium supplemented with 500 ng/ml Wnt3a, 500 ng/ml FGF4 (R&D 7460-F4), 250 nM LDN3189 and 2 uM retinoic acid (RA first day only). Cultures were passaged 1:6 with seeding occurring in a 1:4 Matrigel (Fisher Scientific 354230)/CDM2 mixture and incubated for 30 minutes at 37° C. before a three day application of stage 3 medium composed of 2 uM retinoic acid, 250 nM LDN3189 and 100 ng/ml EGF (R&D 236-EG). Cultures were then supplemented with a stage 4 medium supplemented with 100 ng/ml EGF for 23 days before organoids were recovered and fixed for sectioning.
as §1
RNA extractions for modeling analysis were performed using a MagMax-96 Total RNA Isolation Kit (Life Technologies AM1830) and performed according to manufacturer's protocol. […]

Another test relates to DFE culture. As to the kind of experiment: Sequential DoE/ISPA modelling on DFE culture, maximizing SOX2, OSR1 or PDX1 expression. To be noted: ISPA; for factor contribution (FC) for PDX1 (pancreatic) activation: PDX1^Opt.
Test [4] has as its system pluripotent stem cells. Nature of the test: Immunostaining and high content imaging of DFE markers (conversion efficiency). The conditions noted are these: immunostaining of DFE markers, compared with HNF1β^Opt / RA. As for the experimental part: Histological characterization occurred by treating cell cultures with 4% paraformaldehyde (EMD 30525-89-4) solution at ambient temperature for 15 minutes. Samples were then blocked and permeabilized using 0.1M Tris/HCl (Promega H5123) pH 7.5 supplemented with 0.5% blocking reagent (Perkin Elmer FP1012) and 0.1% TrintonX-100 (Fisher Scientific BP151) for 1 hour. All antibody solutions were diluted in 0.1M Tris/HCl (Promega H5123) pH 7.5 and primary antibodies were incubated over-night while secondary antibodies were incubated for an hour. All incubations occurred at ambient temperature. Cultures were treated with a 1:2 dilution of Vectashield mounting medium (Vector Laboratories H-1200).
To further validate the induction conditions for DFE markers, immunostaining was performed, followed by high content imaging to assess conversion efficiency.

Test [5] concerns pluripotent cultures. Nature of the test: HD-DoE gastrulation modeling, normalized effector factor contributions for endodermal genes. To be noted: ISPA.
Description: as §1, with “Virtual experiments were performed in the known space covered by the experimental design, addressing pathway relative contributions to the desired parameters.” left out
To better understand how the in vitro produced endodermal populations being studied are patterned we next performed a follow-up DoE-based gastrulation modeling experiment (FIG. 16A). ISPA optimizing for all the individual endoderm genes measured were then subjected to a cluster analysis using Seurat R package (FIG. 16B). […]
HD-DoE designs incorporating Activin A (AA), BMP4, NODAL, retinoic acid and respective inhibitors were used on pluripotent cultures and key endodermal genes were monitored (FIG. 16). Resulting data was imported into analysis software and computer models predicting optimal culture conditions for activating all genes monitored were clustered (FIG. 19B). […]

Description for DFE culture: Since we observed that the DFE cultures were competent for both stomach and pancreas induction we next evaluated this bi-potential nature through a sequential DoE modelling experiment performed on the DFE culture.
Results from ISPA maximization of the expression of SOX2, OSR1 or PDX1 were compared (FIGS. 4A & B).
Pluripotent cultures were adapted to Essential 8 media (Gibco A15169-01) and grown on vitronectin (Gibco A14700) coated plates (Corning Inc. 3598). Differentiation experiments were seeded at 75,000 cells per cm^2 and maintained in E8 medium for 48 hours until cultures were approximately 90% confluent before initiating differentiation. All growth factors and small molecules were reconstituted according to supplier's recommendations and aliquots were stored at −80° C. for up to a year. Growth medium was changed daily and with the exception of the DE protocol the basal medium used in all differentiation experiments was CDM2 (Loh et al., 2014). The APS^Opt was composed of 250 nM LDN3189 (Sellekchem S2618), 50 ng/ml Activin A (Peprotech 120-14), 20 ng/ml bFGF (Gibco 13256029), 100 nM Sant1 (Sellekchem S7092). The HNF1β^Opt was supplemented with 250 nM LDN3189, 500 nM A8301 (Biogems 4463325), 12.6 ng/ml Wnt3a (R&D 5036WN/CF), 25 ng/ml bFGF, 250 nM PD0325 (Selleckchme S1036), 40 ng/ml SHH (Peprotech 100-45) and 2 uM retinoic acid (Sigma Aldrich R2625). […] The PDX1^Opt was composed of 500 nM A8301, 250 nM LDN3189, 100 nM Sant1, 250 nM PD0325, 2 uM retinoic acid and 1% B27 supplement (Gibco 12587) and with the exception of where it is stated differently in the text was used for 3 sequential days on differentiating cells.

On to `CC1=C(/C=C/C(C)=C/C=C/C(C)=C\C(=O)O)C(C)(C)CCC1` [13-cis retinoic acid], for which the “factor contribution (FC) to HNF1β induction” value in the test on pluripotent stem cells [1] was found to be 24.1609.
For the molecule `[Cl-].[K+]` [KCl], in test [2], the “increase in detectable C-peptide levels” value is reported as 4 fold.
Regarding `Cc1cccc(-c2nn(C(=S)Nc3ccccc3)cc2-c2ccnc3ccccc23)n1` [Alk5i, A8301], in the test with pluripotent cultures [3], the “factor contribution (FC) for FOXA2 expression” value is 8.88, the “factor contribution (FC) for HNF1β expression” value is recorded as 7.59 and the “factor contribution (FC) for MNX1 expression” value is recorded as 18.98.
For the molecule SHH, the “factor contribution (FC) for SOX2 expression” value in the test on DFE culture is listed as 29.58.
In the case of `CC1=C(/C=C/C(C)=C/C=C/C(C)=C/C(=O)O)C(C)(C)CCC1=O` [4-oxo-retinoic acid], in the test on pluripotent stem cells [1], the “factor contribution (FC) to HNF1β induction” value is recorded as 13.21.
Regarding `c1ccc2c(-c3cnn4cc(-c5ccc(N6CCNCC6)cc5)cnc34)ccnc2c1` [BMPi, LDN193189], in the test on pluripotent cultures [3], the “factor contribution (FC) for FOXA2 expression” value is recorded as 25.3, the “factor contribution (FC) for HNF1β expression” value is reported as 31.7 and the “factor contribution (FC) for MNX1 expression” value was 30.5.
For the molecule `CC1=C(/C=C/C(C)=C/C=C/C(C)=C/C(=O)O)C(C)(C)CCC1` [RA, retinoic acid], in the test with pluripotent cultures [3], the “factor contribution (FC) for FOXA2 expression” value is listed as 24.8, the “factor contribution (FC) for HNF1β expression” value was 30.1 and the “factor contribution (FC) for MNX1 expression” value was 22.7. The “factor contribution (FC) to HNF1β induction” value in the test with pluripotent stem cells [1] is on record as 2.773. Further, in the test on DFE culture, the “factor contribution (FC) for OSR1 (gastric) activation” value was found to be 30.68, the “factor contribution (FC) for SOX2 expression” value is reported as −28.59 and the “factor contribution (FC) for PDX1 (pancreatic) activation” value is given as 31.38.
`O=C(NOC[C@H](O)CO)c1ccc(F)c(F)c1Nc1ccc(I)cc1F` [PD0325901]: the “factor contribution (FC) for PDX1 (pancreatic) activation” value in the test on DFE culture was found to be 29.62.
As for `CC1(C)CCC(C)(C)c2cc(C#Cc3ccc(C(=O)O)cc3)ccc21` [EC23], the “effectiveness of DFE induction by alternative retinoic acid pathway agonists” value in the test with pluripotent stem cells [4] is reported as “operates equivalently to RA”.

B1: Activin A (protein, UniProt P08476 311-426, looked up)
Inhibin beta A chain: GLECDGKVNICCKKQFFVSFKDIGWNDWIIAPSGYHANYCEGECPSHIAGTSGSSLSFHSTVINHYRMRGHSPFANLKSCCVPTKLRPMSMLYYDDGQNIIKKDIQNMIVEECGCS
modifications: Inhibin beta A chain
notes: TGFβ pathway agonist used as a Nodal mimic
For the molecule B1, the “contribution to activating retinoic acid/BMP inhibition-dependent endoderm genes” value with pluripotent cultures [3] (FOXA2, HNF1β, MNX1 etc.) is “no contribution”. For the same molecule, the “factor contribution (FC) to anterior primitive streak (APS) gene induction” value in the test with pluripotent cultures [3] (maximal MESP1, EOMES, BRACHYURY/T, minimal EVX1) was 18.85. In addition, in the test on pluripotent cultures [5], the “normalized factor contribution for OSR1 activation” value is −1.0, the “normalized factor contribution for PAX9 activation” value is given as −0.85 and the “normalized factor contribution for TBX1 activation” value is recorded as −0.59.

B2: FGF4 (protein, UniProt P08620 31-206, looked up)
Fibroblast growth factor 4: APTAPNGTLEAELERRWESLVALSLARLPVAAQPKEAAVQSGAGDYLLGIKRLRRLYCNVGIGFHLQALPDGRIGGAHADTRDSLLELSPVERGVVSIFGVASRFFVAMSSKGKLYGSPFFTDECTFKEILLPNNYNAYESYKYPGMFIALSKNGKTKKGNRVSPTMKVTHFLPRL
notes: FGF signaling growth factor (R&D 7460-F4)
With B2, the “factor contribution (FC) for OSR1 (gastric) activation” value with DFE culture is on record as 13.45.
